Measured values published in patent EP4595976A1, “COMPOSITION FOR TREATING CANCER CONTAINING HISTONE DEACETYLASE INHIBITOR, AND ANTICANCER ADJUVANT FOR CANCER IMMUNOTHERAPY” (Samsung Life Public Welfare Foundation, priority 2022, dated 2024).

Legend:
PD-L1 = PD-L1 expression (real-time PCR, western blot) in colorectal cell lines 48 hours after HDAC inhibitor treatment; format: cell-based; settings: for PD-L1 expression at the RNA and protein levels: depending on the concentration; for PD-L1 expression: IC50 and 1/2 IC50, 48 hours, FIG. 2
Protocol: The HDAC3 inhibitor experiment was conducted by harvesting cells 48 hours after the treatment at each inhibitor concentration and obtaining RNA and proteins. RGFP966 (S7229) purchased from SellekChem was used as an HDAC3 inhibitor. Specifically, SW620, LS513, DLD-1, CT26, and MC38 were individually cultured, and the experiments were conducted using the IC50 and 1/2 IC50 concentration on the basis of the previously determined IC50 concentration. RNA and protein samples were collected 48 hours after RGFP966 treatment. The RNA samples were isolated using the TRIzol, isopropanol, and chloroform, and the protein samples were collected by lysis with a lysis buffer (Roche, 4719956001). RNA was synthesized into cDNA using a cDNA synthesis kit (Bioneer, K-2044-B), and real-time PCR was performed using a method according to SYBR (Applied Biosystems, 4367659). Proteins were quantified using the Bradford assay (Bio-Rad, 50000006), and subjected to loading, transfer, blocking (3% skim milk; BD, 232100), primary antibody (24 h, 4°C), and secondary antibody sequentially, thereby developing PD-L1.
The HDAC6 inhibitor experiment was conducted by the same method as in the HDAC3 inhibitor experiment of Experimental Example 3, and Nexturastat A HDAC6 selective inhibitor purchased from SellekChem was used as an HDAC6 inhibitor.
The HDAC8 inhibitor experiment was conducted by the same method as in the HDAC3 inhibitor experiment of Experimental Example 3, and PCI-34051 HDAC8 selective inhibitor purchased from SellekChem was used as an HDAC8 inhibitor.
The HDAC6 and HDAC8 inhibitor experiment was conducted by harvesting cells 48 hours after the treatment and then obtaining RNA and proteins.

CT26 [1] = experiment: Animal experiment using HDAC6 inhibitor with or without anti-PD-L1 antibody, CT26 tumors; format: in vivo; settings: during treatment with HDAC6 inhibitor; FIG. 9D
Protocol: The animal experiment using an HDAC6 inhibitor was conducted using a total of three groups, a control group (control), an HDAC6i (Next A) group, and an HDAC6i (Next A)+anti-PD-L1 group. Nexturastat A (SellekChem) was used as HDAC6i (HDAC6 inhibitor), and #BE0101(Bioxcell) was used as an anti-PD-L1 antibody. CT26 (1x10^6) cells and BALB/C mice were used. Three mice for the control group, three mice for the HDAC6i group, and four mice for the HDAC6i+anti-PD-L1 group were used.
• HDAC6i group: HDAC6i 20 mpk(mg/kg) intraperitoneally injected daily • HDAC6i+anti-PD-L1 group: HDAC6i 20 mpk intra peritoneally injected every day and anti-PD-L1 antibody 10 mpk intra peritoneally injected three times per week.
In addition, paraffin blocks of tumor tissues were prepared for histological staining, and subjected to H&E and TUNEL assay in order to investigate cell death. […]
Additionally, the expression of related genes was examined by real-time PCR after the isolation of RNA form tumors. In the animal experiment according to an example of the present invention, the mRNA changes of PD-L1, TNF-a and IFN-γ (pro-inflammatory cytokines), IL-6 (anti-inflammatory cytokine), and IRF-1 (target gene for JAK2/STAT1 signaling) were measured, and the results are shown in FIG. 11.

DLD-1 = experiment: IC50 concentration at which 50% of cells are dead, inhibitor treatment for 48 hours; format: cell-based; settings: Homo sapiens, Table 3, DLD-1 (MSI), read-out: IC50(mean±SD)
Protocol: (§1) The IC50 concentration, which is the concentration at which 50% of cells are dead, was obtained by treating each cell line with an inhibitor at different concentrations for 48 hours and then determining the concentrations at which 50% of the cells were dead. Especially, the results obtained by treating various MSS cell lines (SW620, LS513, HT29, and CT26) with HDAC6i are shown in Table 4 below.

SW620 = experiment: as above; format: cell-based; settings: Homo sapiens, SW-620, Table 3, SW620 (MSS), read-out: IC50(mean±SD)
Protocol: as §1

LS513 = experiment: as above; format: cell-based; settings: Homo sapiens, LS-513, Table 3, LS513 (MSS), read-out: IC50(mean±SD)
Protocol: as §1

CT26 [2] = experiment: as above; format: cell-based; settings: Mus musculus; Table 4; CT26, MSS (48hr); read-out: IC50(mean±SD)
Protocol: as §1

HT29 = experiment: as above; format: cell-based; settings: Homo sapiens, HT-29; Table 4; HT29, MSS (48hr); read-out: IC50(mean±SD)
Protocol: as §1

PD-L1 and B7H3 = PD-L1 and B7H3 expression after HDAC6 inhibitor treatment in MSI and MSS colorectal cancer cell lines; format: cell-based; settings: IC50 and half-IC50 concentrations; MSS cell line compared with MSI cell line; FIG. 15
Protocol: The IC50 values of the HDAC6 inhibitor (Nexturastat A) in three MSI colorectal cancer cell lines (DLD-1, HCT116, and MC38) and three MSS colorectal cancer cell lines (SW620, HT29, and CT26) were determined. The cells were then treated with the inhibitor at the IC50 and half-IC50 concentrations (concentration corresponding to 1/2 of the IC50 value), and the expression levels of the immune checkpoint proteins PD-L1 and B7H3 were measured.

For CCCCN(Cc1ccc(C(=O)NO)cc1)C(=O)Nc1ccccc1 [Nexturastat A], the “PD-L1 expression at the RNA and protein levels” value (PD-L1; MSS cell lines (SW620, LS513, HT29, and CT26), FIG. 4) was “increase”, the “body weight of the mice” value (CT26 [1]) was “not reduced” and the IC50 (DLD-1) was 10.8 µM. The IC50 (SW620) was 6.8 µM, the IC50 (LS513) was 26.9 µM and the IC50 (CT26 [2]) was 27.1 µM. The IC50 (HT29) was 11.3 µM, the B7H3 expression (PD-L1 and B7H3) was “distinct increase tendencies” and the PD-L1 expression (PD-L1 and B7H3) was “distinct increase tendencies”.
With COc1ccc(Cn2ccc3ccc(C(=O)NO)cc32)cc1 [PCI-34051] the “PD-L1 expression at the RNA and protein levels” value (PD-L1; MSS cell lines (SW620, LS513, and CT26), FIG. 6) was “increase”, the IC50 (DLD-1) was 6.36 µM and the IC50 (SW620) was 31.8 µM. For the same compound, the IC50 (LS513) was 19.6 µM.
Nc1cc(F)ccc1NC(=O)/C=C/c1cnn(C/C=C/c2ccccc2)c1 [RGFP966] was tested, and the PD-L1 expression (PD-L1; MSS cell lines (SW620, LS513, and CT26), compared with HDAC6 and HDAC8) was “small increases”, the PD-L1 expression (PD-L1; mouse cells) was “decrease tendency” and the IC50 (DLD-1) was 119 µM. It also gave an IC50 (SW620) of 23.8 µM and an IC50 (LS513) of 43.1 µM.
